This note sets out measurements from patent EP4803520A1, “COMPOUND CONTAINING FUSED BICYCLIC RING, PHARMACEUTICAL COMPOSITION, AND USE THEREOF” (priority 2023, dated 2025).

One test has as its system MDA-MB-436 cells. Kind of test: Assay on inhibitory activity for MDA-MB-436 cell proliferation (CCK-8). Type of test: cell-based. The following applies: 168 h of incubation, CCK-8, absorbance at 450 nm. As to the method: MDA-MB-436 cells in a good growth state were collected into a centrifuge tube, adjusted to a cell density of 2 × 10^4 cells/mL using a complete medium (DMEM high glucose + 10% FBS + 1× insulin-transferrin-selenium (ITS-G) + 16 µg/mL reduced glutathione), and seeded in a 96-well plate (100 µL/well), and the plate was incubated overnight in a cell incubator. Compounds were added using a pipettor, such that the final concentrations of the compounds were 400 nM-0.02 nM. The wells were set in duplicate, and a control well was set. After 168 h of incubation in the cell incubator, the assay reagent CCK-8 (manufacturer: Dojindo Laboratories, Beijing; 10 µL/well) was added. After 1.5 h of incubation in the cell incubator, the absorbance values were measured at 450 nm on a PerkinElmer Envision microplate reader. […] Inhibitory activity results for DA-MB-436 cell proliferation of compounds

In test [1] the target is T1, PARP1 (Homo sapiens, UniProt P09874). Kind of test: PARP1-Tracer activity assay (FP method). The format is binding. Details: purchased BPS 80551. The following applies: ratio of PARP2 IC50 to PARP1 IC50, FP method. As to the method: The enzyme inhibition activity of the compounds against PARP1/2-Tracer was tested using the FP method. First, 100 nL of inhibitors with a final concentration of 1% DMSO were transferred to a 384-well reaction plate (Corning 4514) using Echo655. Then, 5 µL of a PARP1/2 (BPS, Cat. No. 80501/80502) enzyme solution was added to each well, followed by centrifugation at 1000 RPM for 1 min at room temperature, and the reaction was allowed to proceed for 10 min. Subsequently, 5 µL of a Tracer (ICE, Cat. No. 001315-009) solution was added to each well, followed by centrifugation at 1000 RPM for 1 min at room temperature, and the reaction was allowed to proceed for 60 min. PARP1/2 and Tracer were prepared in a buffer containing 50 mM Tris (pH 8.0), 10 mM MgCl2, 150 mM NaCl, and 0.001% Triox-100, with final concentrations of 5/10 nM and 2.5 nM, respectively. Finally, the FP signal was read using BMG (PHERAstar FSX), and the IC50 values and nonlinear regression curve fitting were obtained using GraphPad Prism software.

Test [2] has as its target T1, PARP1. Kind of test: Assay on PARP1 protein activity (chemiluminescence assay kit).
Experimental: A chemiluminescence assay kit (BPS, Cat. No. 80551) was used. 50 µL of 1× histone was added to a 96-well plate and incubated overnight at 4 °C. Each well was washed 3 times with 200 µL of a PBST buffer (containing 0.05% Tween-20), and the liquid was removed from the plate. 200 µL of blocking buffer 3 was added, and the plate was blocked at room temperature for 60-90 min. The blocking solution was discarded, and the plate was washed 3 times with a PBST buffer, followed by the removal of the liquid from the plate. 25 µL of a master mix (2.5 µL of a 10× PARP buffer + 2.5 µL of a 10× biotinylated substrate assay mix + 5 µL of activated DNA (5×) + 15 µL of water) and 5 µL of a 1× PARP buffer were added to each well. Compounds were sprayed using a nanoliter pipettor in the compound groups. 20 µL of a 1× PARP buffer was added to the blank control group, and 20 µL of PARP 1 enzyme (2.4 ng/mL) was added to the other wells to initiate the reaction. The plate was incubated at room temperature for 1 h. 50 µL of streptavidin-HRP (diluted 1:50 in blocking buffer 3) was added to each well, and the plate was incubated at room temperature for 30 min. The plate was washed three times with PBST, and the liquid was removed from the plate. 50 µL of ELISA ECL substrate A and 50 µL of ELISA ECL substrate B were mixed on ice before use, and 100 µL were added to each well.

pIC50: −log10 of the molar value.

T1 sequence (P09874 whole entry): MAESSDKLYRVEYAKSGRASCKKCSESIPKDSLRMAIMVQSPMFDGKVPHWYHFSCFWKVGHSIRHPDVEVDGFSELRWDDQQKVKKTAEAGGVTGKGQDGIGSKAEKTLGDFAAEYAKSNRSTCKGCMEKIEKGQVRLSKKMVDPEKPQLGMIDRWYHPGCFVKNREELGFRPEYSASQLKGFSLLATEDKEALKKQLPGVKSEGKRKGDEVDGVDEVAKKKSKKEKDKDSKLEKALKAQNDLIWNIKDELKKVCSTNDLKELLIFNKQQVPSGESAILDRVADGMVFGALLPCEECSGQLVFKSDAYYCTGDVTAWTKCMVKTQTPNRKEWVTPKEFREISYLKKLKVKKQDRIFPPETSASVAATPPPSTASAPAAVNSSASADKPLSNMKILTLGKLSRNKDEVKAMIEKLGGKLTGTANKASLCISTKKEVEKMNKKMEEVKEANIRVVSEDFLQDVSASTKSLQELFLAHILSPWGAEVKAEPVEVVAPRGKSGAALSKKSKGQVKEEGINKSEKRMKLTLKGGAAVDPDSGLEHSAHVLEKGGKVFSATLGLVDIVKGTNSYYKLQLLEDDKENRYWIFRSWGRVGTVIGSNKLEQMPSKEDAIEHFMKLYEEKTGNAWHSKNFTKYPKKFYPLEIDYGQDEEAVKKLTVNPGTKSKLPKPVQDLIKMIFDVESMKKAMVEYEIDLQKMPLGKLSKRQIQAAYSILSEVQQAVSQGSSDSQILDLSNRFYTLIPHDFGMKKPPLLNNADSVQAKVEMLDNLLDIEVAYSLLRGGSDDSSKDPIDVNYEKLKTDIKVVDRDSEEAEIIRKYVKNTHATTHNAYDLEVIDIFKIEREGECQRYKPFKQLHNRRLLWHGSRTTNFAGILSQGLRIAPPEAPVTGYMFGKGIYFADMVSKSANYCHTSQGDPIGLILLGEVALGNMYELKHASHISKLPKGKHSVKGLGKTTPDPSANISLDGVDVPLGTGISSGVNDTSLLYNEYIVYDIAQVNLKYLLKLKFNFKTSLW

In the test on MDA-MB-436 cells (Homo sapiens, MDA-MB-436), `CNC(=O)n1cc2c(n1)CN(C1CN(Cc3ccc4cc(C(F)(F)F)c(=O)[nH]c4c3)[C@@H]1C)C2` (single isomer, unassigned) [Compound 35] had a pIC50 of at least 7.30.
`CNC(=O)n1cc2c(n1)CN(C1CN(Cc3ccc4cc(C5CC5)c(=O)[nH]c4c3)[C@@H]1C)C2` (single isomer, unassigned) [Compound 40] showed a pIC50 in the test with MDA-MB-436 cells (Homo sapiens, MDA-MB-436) of at least 7.30.
`CCc1cc2ccc(CN3CC(N4Cc5cn(C(=O)NC)nc5C4)C3)cc2[nH]c1=O` [Compound 1]: the negative-log IC50 (pIC50) in the test with MDA-MB-436 cells is at least 7.30.
In turn, `CNC(=O)n1cc2c(n1)CN(C1CN(Cc3ccc4cc(C5CC5)c(=O)[nH]c4c3)C1)C2` [Compound 2] showed a pIC50 in the test on MDA-MB-436 cells (Homo sapiens, MDA-MB-436) of at least 7.30.
Consider `CCc1cc2ccc(CN3CC(N4Cc5cn(C(=O)NC6CC6)nc5C4)C3)cc2[nH]c1=O` [Compound 4], for which, in the test with MDA-MB-436 cells, the pIC50 is at least 7.30.
The compound `CCc1cc2ncc(CN3CC(N4Cc5cn(C(=O)NC6CC6)nc5C4)C3)cc2[nH]c1=O` [Compound 5] gave a pIC50 in the test on MDA-MB-436 cells of at least 7.30.
On the same count and under the same terms, to `CCc1cc2ncc(CN3CC(N4Cc5nc(C(=O)NC)sc5C4)C3)cc2[nH]c1=O` [Compound 7] belongs at least 7.30; to `CCc1cc2ccc(CN3CC(N4Cc5cn(C(=O)NC(C)C)nc5C4)C3)cc2[nH]c1=O` [Compound 9], at least 7.30; to `CCc1cc2ncc(CN3CC(N4Cc5cn(C(=O)NC)nc5C4)C3)cc2[nH]c1=O` [Compound 10], at least 7.30.
On the same count and under the same terms, in the case of `O=C(NC1CC1)n1cc2c(n1)CN(C1CN(Cc3ccc4cc(C5CC5)c(=O)[nH]c4c3)C1)C2` [Compound 11] it was at least 7.30; in that of `CCNC(=O)n1cc2c(n1)CN(C1CN(Cc3ccc4cc(CC)c(=O)[nH]c4c3)C1)C2` [Compound 13], at least 7.30; in that of `CNC(=O)n1cc2c(n1)CN(C1CN(Cc3ccc4c5c(c(=O)[nH]c4c3)CCC5)C1)C2` [Compound 15], at least 7.30.
Same read-out and setting: in the case of `CCc1cc2c(F)cc(CN3CC(N4Cc5cn(C(=O)NC)nc5C4)C3)cc2[nH]c1=O` [Compound 16] it was at least 7.30.
Consider `CCc1cc2ccc(CN3CC(N4Cc5cn(C(=O)N[C@@H]6CCOC6)nc5C4)C3)cc2[nH]c1=O` [Compound 17], for which, in the test with MDA-MB-436 cells (Homo sapiens, MDA-MB-436), the pIC50 was at least 7.30.
Still for that read-out and setting: in the case of `CCc1cc2cc(F)c(CN3CC(N4Cc5cn(C(=O)NC)nc5C4)C3)cc2[nH]c1=O` [Compound 18] it was at least 7.30; in that of `CCc1cc2ccc(CN3CC(N4Cc5nc(C(=O)NC)sc5C4)C3)cc2[nH]c1=O` [Compound 19], at least 7.30; in that of `CCc1cc2c(F)cc(CN3CC(N4Cc5cn(C(=O)NC6CC6)nc5C4)C3)cc2[nH]c1=O` [Compound 20], at least 7.30.
On the same count and under the same terms, in the case of `CCc1cc2c(F)cc(CN3CC(N4Cc5nc(C(=O)NC)sc5C4)C3)cc2[nH]c1=O` [Compound 21] it was at least 7.30.
Still for that read-out and setting: in the case of `CNC(=O)n1cc2c(n1)CN(C1CN(Cc3ccc4cc(C)c(=O)[nH]c4c3)C1)C2` [Compound 22] it was at least 7.30.
For `Cc1cc2ccc(CN3CC(N4Cc5cn(C(=O)NC6CC6)nc5C4)C3)cc2[nH]c1=O` [Compound 23], the pIC50 in the test on MDA-MB-436 cells (Homo sapiens, MDA-MB-436) was at least 7.30.
The compound `CNC(=O)n1cc2c(n1)CN(C1CN(Cc3ccc4cc(C(F)(F)F)c(=O)[nH]c4c3)C1)C2` [Compound 24] showed a pIC50 in the test with MDA-MB-436 cells (Homo sapiens, MDA-MB-436) of at least 7.30. At PARP1 [1], the “PARP2/PARP 1 selectivity” value is recorded as over 200 fold.
`CCc1cc2c(Cl)cc(CN3CC(N4Cc5cn(C(=O)NC)nc5C4)C3)cc2[nH]c1=O` [Compound 25] gave a pIC50 with MDA-MB-436 cells (Homo sapiens, MDA-MB-436) of at least 7.30.
Consider `CNC(=O)n1cc2c(n1)CN(C1CN(Cc3ccc4cc(Cl)c(=O)[nH]c4c3)C1)C2` [Compound 26], for which the pIC50 with MDA-MB-436 cells (Homo sapiens, MDA-MB-436) was at least 7.30.
Same read-out and setting: in the case of `CNC(=O)c1nc2c(s1)CN(C1CN(Cc3ccc4cc(Cl)c(=O)[nH]c4c3)C1)C2` [Compound 27] it was at least 7.30; in that of `CNC(=O)c1nc2c(s1)CN(C1CN(Cc3ccc4cc(C(F)(F)F)c(=O)[nH]c4c3)C1)C2` [Compound 28], at least 7.30.
The same measure, in the same setting: to `CCc1cc2ccc(CN3CC(N4Cc5cn(C(=O)NC)nc5C4)C3)c(F)c2[nH]c1=O` [Compound 29] belongs at least 7.30; to `CCc1cc2ccc(CN3CC(N4Cc5nc(C(=O)NC)sc5C4)C3)c(F)c2[nH]c1=O` [Compound 30], at least 7.30.
In the case of `CNC(=O)c1nc2c(s1)CN(C1CN(Cc3ccc4cc(C5CC5)c(=O)[nH]c4c3)C1)C2` [Compound 31], the pIC50 with MDA-MB-436 cells (Homo sapiens, MDA-MB-436) is at least 7.30.
Still for that read-out and setting: to `CNC(=O)c1cc2c(s1)CN(C1CN(Cc3ccc4cc(C(F)(F)F)c(=O)[nH]c4c3)C1)C2` [Compound 33] belongs at least 7.30.
As for `CNC(=O)n1cc2c(n1)CN(C1CN(Cc3ccc4c(c3)[nH]c(=O)n3cccc43)C1)C2` [Compound 34], in the test with MDA-MB-436 cells (Homo sapiens, MDA-MB-436), the pIC50 was at least 7.30.
Turning to `CNC(=O)n1cc2c(n1)CN([C@H]1CN(Cc3ccc4cc(C(F)(F)F)c(=O)[nH]c4c3)[C@H]1C)C2` [Compound 36], the pIC50 in the test on MDA-MB-436 cells (Homo sapiens, MDA-MB-436) is at least 7.30.
Take `CCc1cc2ccc(CN3C[C@H](N4Cc5cn(C(=O)NC)nc5C4)[C@@H]3C)cc2[nH]c1=O` [Compound 41]: the pIC50 on PARP1 [2] is over 8.00; with MDA-MB-436 cells (Homo sapiens, MDA-MB-436) it was at least 7.30.
On the same counts, the results for `CNC(=O)n1cc2c(n1)CN([C@H]1CN(Cc3ccc4cc(C5CC5)c(=O)[nH]c4c3)[C@H]1C)C2` [Compound 42] are over 9.00 and at least 7.30.
In the test on MDA-MB-436 cells, `CNC(=O)n1cc2c(n1)CN([C@@H]1CN(Cc3ccc4cc(C5CC5)c(=O)[nH]c4c3)[C@H]1C)C2` [Compound 43] had a pIC50 of at least 7.30.
Compound `CCc1nc2ccc(CN3C[C@H](N4Cc5cn(C(=O)NC)nc5C4)[C@@H]3C)cc2[nH]c1=O` [Compound 45] had a pIC50 in the test with MDA-MB-436 cells (Homo sapiens, MDA-MB-436) of at least 7.30. For the same compound, on PARP1 [1], the “PARP2/PARP 1 selectivity” value is listed as over 200 fold.
For `CCc1cc2ncc(CN3C[C@H](N4Cc5cn(C(=O)NC)nc5C4)[C@@H]3C)cc2[nH]c1=O` [Compound 47], the pIC50 on PARP1 [2] was over 9.00; with MDA-MB-436 cells (Homo sapiens, MDA-MB-436) it was at least 7.30.
Consider `CNC(=O)n1cc2c(n1)CN(C1CN(Cc3ccc4c(C)c(C(F)(F)F)c(=O)[nH]c4c3)C1)C2` [Compound 50], for which the pIC50 is over 9.00 on PARP1 [2] and at least 7.30 in the test with MDA-MB-436 cells (Homo sapiens, MDA-MB-436).
In the test with MDA-MB-436 cells (Homo sapiens, MDA-MB-436), `CCc1nc2ccc(CN3C[C@H](N4Cc5cn(C(=O)NC)nc5C4)[C@@H]3C)c(F)c2[nH]c1=O` [Compound 51] had a pIC50 of at least 7.30.
Take `CNC(=O)n1cc2c(n1)CN([C@H]1CN(Cc3ccc4c(C)c(C(F)(F)F)c(=O)[nH]c4c3)[C@H]1C)C2` [Compound 54]: the pIC50 at PARP1 [2] is over 9.00; with MDA-MB-436 cells (Homo sapiens, MDA-MB-436), at least 7.30.
